In ChEMBL document CHEMBL5107989, “Design, synthesis and activity evaluation of isopropylsulfonyl-substituted 2,4- diarylaminopyrimidine derivatives as FAK inhibitors for the potential treatment of pancreatic cancer” (Eur J Med Chem, 2022):

Assays:
[1] = Cytotoxicity against human L02 cells assessed as inhibition of cell growth incubated for 72 hrs by CCK-8 assay; type: toxicity, cell-based
ASPC1 = assay: cells; settings: Homo sapiens, ASPC1, 72 h
Description: Antiproliferative activity against human ASPC1 cells harboring KRAS,TP53,CDKN2A and DPC4/SMAD4 mutations assessed as inhibition of cell growth incubated for 72 hrs by CCK-8 assay

MIA PaCa-2 = assay: cells; settings: Homo sapiens, MIA PaCa-2, 72 h
Description: Antiproliferative activity against human MIA PaCa-2 cells harboring KRAS,TP53,CDKN2A and DPC4/SMAD4 mutations assessed as inhibition of cell growth incubated for 72 hrs by CCK-8 assay

NCI-H1975 = assay: cells; settings: Homo sapiens, NCI-H1975, 72 h
Description: Antiproliferative activity against gefitinib-resistant human NCI-H1975 cells assessed as inhibition of cell growth incubated for 72 hrs by CCK-8 assay

KM3/BTZ = assay: cells; settings: Homo sapiens, 72 h
Description: Antiproliferative activity against bortezomib- resistant human KM3/BTZ cells assessed as inhibition of cell growth incubated for 72 hrs by CCK-8 assay

Raji = assay: cells; settings: Homo sapiens, 72 h
Description: Antiproliferative activity against human Raji cells assessed as inhibition of cell growth incubated for 72 hrs by CCK-8 assay

Focal adhesion kinase 1 = Focal adhesion kinase 1 (Homo sapiens, UniProt Q05397); assay: Inhibition of recombinant human FAK (393 to 698 residues) using poly (4:1 Glu, Tyr) peptide as substrate incubated for 60 mins in presence of ATP by ADP-Glo reagent based luminescent assay
Focal adhesion kinase 1, sequence (Q05397 whole entry, the tested form may be a part): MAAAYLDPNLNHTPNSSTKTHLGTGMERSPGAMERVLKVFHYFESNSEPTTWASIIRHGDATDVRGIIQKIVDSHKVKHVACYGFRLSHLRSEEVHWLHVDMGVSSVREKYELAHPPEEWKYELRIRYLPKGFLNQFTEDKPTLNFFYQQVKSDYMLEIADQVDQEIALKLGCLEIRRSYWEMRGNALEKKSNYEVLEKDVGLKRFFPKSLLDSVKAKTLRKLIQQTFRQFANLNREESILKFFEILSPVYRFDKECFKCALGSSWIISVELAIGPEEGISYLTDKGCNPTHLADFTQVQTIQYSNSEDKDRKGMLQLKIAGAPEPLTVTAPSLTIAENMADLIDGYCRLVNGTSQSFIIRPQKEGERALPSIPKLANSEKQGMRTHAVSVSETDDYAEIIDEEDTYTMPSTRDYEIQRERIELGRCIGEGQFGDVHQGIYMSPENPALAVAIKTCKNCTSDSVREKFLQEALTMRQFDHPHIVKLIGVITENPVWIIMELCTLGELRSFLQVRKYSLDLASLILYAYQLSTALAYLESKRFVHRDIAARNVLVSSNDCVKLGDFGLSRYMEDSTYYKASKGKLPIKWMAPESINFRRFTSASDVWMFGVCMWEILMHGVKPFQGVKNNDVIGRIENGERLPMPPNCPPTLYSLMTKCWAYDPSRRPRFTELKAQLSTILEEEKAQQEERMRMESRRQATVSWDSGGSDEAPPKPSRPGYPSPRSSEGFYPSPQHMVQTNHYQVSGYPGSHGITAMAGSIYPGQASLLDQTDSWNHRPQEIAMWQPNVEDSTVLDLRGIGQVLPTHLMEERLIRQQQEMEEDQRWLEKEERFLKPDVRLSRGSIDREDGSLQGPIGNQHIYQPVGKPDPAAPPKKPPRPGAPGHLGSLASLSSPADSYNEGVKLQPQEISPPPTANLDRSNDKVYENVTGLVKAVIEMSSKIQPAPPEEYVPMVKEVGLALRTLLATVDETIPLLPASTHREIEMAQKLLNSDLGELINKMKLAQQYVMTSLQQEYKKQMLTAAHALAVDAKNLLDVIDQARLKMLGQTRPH

Row | SMILES | IC50 at 72 h [1] | IC50 (ASPC1) | IC50 (MIA PaCa-2) | IC50 (NCI-H1975) | IC50 (KM3/BTZ) | IC50 (Raji) | IC50 (Focal adhesion kinase 1)
1 | CC(C)S(=O)(=O)c1ccccc1Nc1nc(Nc2ccc(CN3CCSCC3)cc2)ncc1Cl | 1.14 µM | 0.735 µM | 0.452 µM | 3.51 µM | 2.49 µM | 2.21 µM | –
2 | CC(C)S(=O)(=O)c1ccccc1Nc1nc(Nc2ccc(NC(=O)CN3CCC(C(=O)NCCCCCC(=O)NO)CC3)cc2)ncc1Cl | 5.05 µM | 3.18 µM | 1.23 µM | > 10 µM | > 10 µM | > 10 µM | –
3 | CNC(=O)c1ccccc1Nc1nc(Nc2ccc(N3CCOCC3)cc2OC)ncc1Cl | 5.21 µM | 4.82 µM | 5.23 µM | > 10 µM | 4.39 µM | > 10 µM | –
4 | CC(C)S(=O)(=O)c1ccccc1Nc1nc(Nc2ccc(OCC(=O)N3CCOCC3)cc2)ncc1Cl | 0.368 µM | 0.259 µM | 0.714 µM | 0.347 µM | 1.61 µM | 3.27 µM | –
5 | CC(C)S(=O)(=O)c1ccccc1Nc1nc(Nc2ccc(CN3CCC(C(=O)NCCO)CC3)cc2)ncc1Cl | 0.978 µM | 0.288 µM | 0.459 µM | 0.494 µM | 0.497 µM | > 10 µM | –
6 | CC(C)S(=O)(=O)c1ccccc1Nc1nc(Nc2ccc(CN3CCC(CO)CC3)cc2)ncc1Cl | 0.192 µM | 0.139 µM | 0.235 µM | 6.29 µM | 0.159 µM | 1.22 µM | –
7 | CCOC(=O)C1CCN(c2ccc(Nc3ncc(Cl)c(Nc4ccccc4S(=O)(=O)C(C)C)n3)cc2)CC1 | 0.981 µM | 0.451 µM | 0.0126 µM | 9.64 µM | > 10 µM | > 10 µM | –
8 | CCC(C)C(CO)NC(=O)C1CCN(Cc2ccc(Nc3ncc(Cl)c(Nc4ccccc4S(=O)(=O)C(C)C)n3)cc2)CC1 (stereo not given) | 1.39 µM | 0.394 µM | 1.91 µM | 8.2 µM | 2.58 µM | > 10 µM | –
9 | CC(C)S(=O)(=O)c1ccccc1Nc1nc(Nc2ccc(N3CCC(C(=O)NCCCCCC(=O)NO)CC3)cc2)ncc1Cl | 0.755 µM | 2.39 µM | 1.17 µM | 4.15 µM | > 10 µM | > 10 µM | –
10 | CCOC(=O)C1CCN(CC(=O)Nc2ccc(Nc3ncc(Cl)c(Nc4ccccc4S(=O)(=O)C(C)C)n3)cc2)CC1 | 1.22 µM | 0.989 µM | 5.27 µM | 2.92 µM | 2.31 µM | 1.32 µM | –
11 | CC(C)S(=O)(=O)c1ccccc1Nc1nc(Nc2ccc(CN3CCC(C(=O)O)CC3)cc2)ncc1Cl | 1.27 µM | 0.472 µM | 1.13 µM | 2.81 µM | 1.02 µM | > 10 µM | –
12 | CC(C)S(=O)(=O)c1ccccc1Nc1nc(Nc2ccc(SCCCN3CCOCC3)cc2)ncc1Cl | 8.65 µM | 3.52 µM | 4.75 µM | 2.88 µM | > 10 µM | > 10 µM | –
13 | COC(=O)CCCCCNC(=O)C1CCN(c2ccc(Nc3ncc(Cl)c(Nc4ccccc4S(=O)(=O)C(C)C)n3)cc2)CC1 | 1.98 µM | 1.92 µM | 0.622 µM | 7.42 µM | 9.77 µM | > 10 µM | –
14 | COC(=O)CCCCCNC(=O)C1CCN(CC(=O)Nc2ccc(Nc3ncc(Cl)c(Nc4ccccc4S(=O)(=O)C(C)C)n3)cc2)CC1 | 7.01 µM | 5.94 µM | 1.23 µM | 3.82 µM | > 10 µM | > 10 µM | –
15 | CCOC(=O)C1CCN(Cc2ccc(Nc3ncc(Cl)c(Nc4ccccc4S(=O)(=O)C(C)C)n3)cc2)CC1 | 0.453 µM | 0.295 µM | 7.09 µM | 2.08 µM | 0.262 µM | 2.96 µM | –
16 | CC(C)S(=O)(=O)c1ccccc1Nc1nc(Nc2ccc(N3CCC(C(=O)O)CC3)cc2)ncc1Cl | 1.51 µM | 0.916 µM | 2.12 µM | 2.71 µM | 3.68 µM | 1.48 µM | –
17 | CCOP(=O)(Cc1ccc(Nc2ncc(Cl)c(Nc3ccccc3S(=O)(=O)C(C)C)n2)cc1)OCC | 7.93 µM | 2.98 µM | 4.71 µM | 2.95 µM | > 10 µM | 1.67 µM | 0.000315 µM
18 | CC(C)S(=O)(=O)c1ccccc1Nc1nc(Nc2ccc(CN3CCC(C(=O)NCCCCCC(=O)NO)CC3)cc2)ncc1Cl | 2.99 µM | 6.98 µM | 1.23 µM | 7.86 µM | 2.89 µM | > 10 µM | –
19 | CC(C)S(=O)(=O)c1ccccc1Nc1nc(Nc2ccc(NC(=O)CN3CCC(C(=O)O)CC3)cc2)ncc1Cl | 2.32 µM | 3.68 µM | 5.05 µM | 7.51 µM | 2.16 µM | 3.25 µM | –
